Measured values as given in ChEMBL document CHEMBL1130984, “Substrate specificity of human prolyl-4-hydroxylase” (Bioorg Med Chem Lett, 1998).

Assays:
[1] = molecular target: T1, Transmembrane prolyl 4-hydroxylase (Homo sapiens, UniProt Q9NXG6); experiment: Compound was tested for inhibition of the enzyme human proline-4-hydroxylase; No inhibition
T1 sequence (Q9NXG6 whole entry): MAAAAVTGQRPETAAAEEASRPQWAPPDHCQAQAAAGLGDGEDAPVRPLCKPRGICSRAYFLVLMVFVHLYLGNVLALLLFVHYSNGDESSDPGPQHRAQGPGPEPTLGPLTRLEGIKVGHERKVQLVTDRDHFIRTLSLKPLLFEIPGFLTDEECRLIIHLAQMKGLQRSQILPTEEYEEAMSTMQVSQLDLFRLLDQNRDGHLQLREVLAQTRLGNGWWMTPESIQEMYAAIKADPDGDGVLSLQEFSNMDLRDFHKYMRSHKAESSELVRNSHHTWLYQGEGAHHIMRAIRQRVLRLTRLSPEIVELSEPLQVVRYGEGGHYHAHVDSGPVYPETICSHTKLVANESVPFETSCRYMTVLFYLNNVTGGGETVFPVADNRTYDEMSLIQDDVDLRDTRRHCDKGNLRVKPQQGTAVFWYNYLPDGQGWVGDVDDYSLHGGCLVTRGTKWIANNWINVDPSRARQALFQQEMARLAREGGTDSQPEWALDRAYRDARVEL

[2] = molecular target: T2, Transmembrane prolyl 4-hydroxylase (Homo sapiens) (UniProt Q9NXG6); experiment: Compound was tested for substrate specificity of human proline-4-hydroxylase; Not a substrate
T2 sequence (whole entry): T1 sequence (Q9NXG6 whole entry)

[3] = molecular target: T2, Transmembrane prolyl 4-hydroxylase (Homo sapiens); experiment: Compound was tested for substrate specificity of human proline-4-hydroxylase; Substrate

| IC50 [1] | Activity [2] | Activity [3] | SMILES |
| --- | --- | --- | --- |
| Not Active | Not a substrate | – | CCOC(=O)CNC(=O)[C@@H]1CC(C)CN1C(=O)[C@H](Cc1ccccc1)NC(=O)CNC(=O)OCc1ccccc1 (stereo partly specified) |
| Not Active | Not a substrate | – | CCOC(=O)CNC(=O)[C@@H]1C(Cl)CCN1C(=O)[C@H](Cc1ccccc1)NC(=O)CNC(=O)OCc1ccccc1 (stereo partly specified) |
| Not Active | Not a substrate | – | CCOC(=O)CNC(=O)[C@H]1N(C(=O)[C@H](Cc2ccccc2)NC(=O)CNC(=O)OCc2ccccc2)CCC12CC2 |
| Not Active | Not a substrate | – | CCOC(=O)CNC(=O)[C@@H]1C(C)CCN1C(=O)[C@H](Cc1ccccc1)NC(=O)CNC(=O)OCc1ccccc1 (stereo partly specified) |
| – | – | Substrate | CCOC(=O)CNC(=O)[C@@H]1C(F)CCN1C(=O)[C@H](Cc1ccccc1)NC(=O)CNC(=O)OCc1ccccc1 (stereo partly specified) |
| Not Active | Not a substrate | – | CCOC(=O)CNC(=O)[C@@H]1C(Br)CCN1C(=O)[C@H](Cc1ccccc1)NC(=O)CNC(=O)OCc1ccccc1 (stereo partly specified) |
